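A five-concentration, 48-hour dose response in 96-well plates underlies each endpoint, interpolated linearly between surrounding concentrations. TGI: total growth inhibition.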
What was measured:
Assay in all cases: inhibition of tumour cell growth, NCI panel, 48 h
A549 NSCLC = system: A549 NSCLC
ACHN renal = system: ACHN renal
M14 melanoma = system: M14 melanoma
MALME-3M melanoma = system: MALME-3M melanoma
NCI-H460 lung = system: NCI-H460 lung
NCI-H522 lung = system: NCI-H522 lung
NCI/ADR-RES ovarian = system: NCI/ADR-RES ovarian
OVCAR-3 ovarian = system: OVCAR-3 ovarian
OVCAR-4 ovarian = system: OVCAR-4 ovarian
OVCAR-5 ovarian = system: OVCAR-5 ovarian
OVCAR-8 ovarian = system: OVCAR-8 ovarian
PC-3 prostate = system: PC-3 prostate
RPMI-8226 leukemia = system: RPMI-8226 leukemia
SF-295 CNS = system: SF-295 CNS
SK-MEL-2 melanoma = system: SK-MEL-2 melanoma
SK-MEL-28 melanoma = system: SK-MEL-28 melanoma
SNB-19 CNS = system: SNB-19 CNS
TK-10 renal = system: TK-10 renal
UO-31 renal = system: UO-31 renal

| Structure (SMILES) | TGI (A549 NSCLC) | TGI (ACHN renal) | TGI (M14 melanoma) | TGI (MALME-3M melanoma) | TGI (NCI-H460 lung) | TGI (NCI-H522 lung) | TGI (NCI/ADR-RES ovarian) | TGI (OVCAR-3 ovarian) | TGI (OVCAR-4 ovarian) | TGI (OVCAR-5 ovarian) | TGI (OVCAR-8 ovarian) | TGI (PC-3 prostate) | TGI (RPMI-8226 leukemia) | TGI (SF-295 CNS) | TGI (SK-MEL-2 melanoma) | TGI (SK-MEL-28 melanoma) | TGI (SNB-19 CNS) | TGI (TK-10 renal) | TGI (UO-31 renal) |
| --- | --- | --- | --- | --- | --- | --- | --- | --- | --- | --- | --- | --- | --- | --- | --- | --- | --- | --- | --- |
| COc1cc2c(cc1OC)CC(=O)c1cc(OC)c(OC)cc1/C=C\2 | > 12.5 µM | > 12.5 µM | > 12.5 µM | > 12.5 µM | > 12.5 µM | > 12.5 µM | > 12.5 µM | > 12.5 µM | > 12.5 µM | > 12.5 µM | > 12.5 µM | > 12.5 µM | > 12.5 µM | > 12.5 µM | > 12.5 µM | > 12.5 µM | > 12.5 µM | > 12.5 µM | > 12.5 µM |
| COC(=O)C12OC(C)(C(CC(=O)OC(C)(C)C)C1=O)C1C(=O)N(c3ccccc3)C(=O)C12 (stereo not drawn) | > 100 µM | > 100 µM | > 100 µM | > 100 µM | > 100 µM | > 100 µM | > 100 µM | > 100 µM | > 100 µM | > 100 µM | > 100 µM | > 100 µM | > 100 µM | > 100 µM | > 100 µM | > 100 µM | > 100 µM | > 100 µM | > 100 µM |
| CCN(CCCN(CC)C(=O)Nc1ccccc1)C(=O)Nc1ccccc1 | > 100 µM | > 100 µM | > 100 µM | > 100 µM | > 100 µM | > 100 µM | > 100 µM | > 100 µM | > 100 µM | > 100 µM | > 100 µM | > 100 µM | > 100 µM | > 100 µM | > 100 µM | > 100 µM | > 100 µM | > 100 µM | > 100 µM |
| COC(=O)C1CC=C(SC(=O)c2ccccc2)N1C(=O)c1ccccc1 (stereo not drawn) | > 100 µM | > 100 µM | > 100 µM | > 100 µM | > 100 µM | > 100 µM | > 100 µM | > 100 µM | > 100 µM | > 100 µM | > 100 µM | > 100 µM | > 100 µM | > 100 µM | > 100 µM | > 100 µM | > 100 µM | > 100 µM | > 100 µM |
| Cc1cccc2c(=O)c3c(O)cc(O)cc3[nH]c12 | > 10 µM | > 10 µM | > 10 µM | > 10 µM | > 10 µM | > 10 µM | > 10 µM | > 10 µM | > 10 µM | > 10 µM | > 10 µM | > 10 µM | > 10 µM | > 10 µM | > 10 µM | > 10 µM | > 10 µM | > 10 µM | > 10 µM |
| CN=CN(C)c1c2ccccc2nc2ccccc12 | > 100 µM | > 100 µM | > 100 µM | > 100 µM | > 100 µM | > 100 µM | > 100 µM | > 100 µM | > 100 µM | > 100 µM | > 100 µM | > 100 µM | > 100 µM | > 100 µM | > 100 µM | > 100 µM | > 100 µM | > 100 µM | 28.1 µM |
| COc1cc(Cn2c(=S)ss/c2=N\C(=S)N(C)C)cc(OC)c1OC | > 100 µM | > 88.8 µM | > 70.7 µM | > 100 µM | 52.3 µM | 15.7 µM | > 100 µM | 13.6 µM | > 95.6 µM | > 100 µM | > 70.9 µM | > 100 µM | > 85.8 µM | 38.5 µM | > 100 µM | > 100 µM | > 100 µM | > 100 µM | > 100 µM |

Reference: PubChem BioAssay (NCI)
